Measurements: patent publication US9896445B2, “Heterocyclic inhibitors of ERK1 and ERK2 and their use in the treatment of cancer” (Asana Biosciences, LLC, priority 2015, dated 2018)

What was measured:
ERK2 = target: T1, ERK2 (Homo sapiens, UniProt P28482); experiment: ERK2 HTRF (biochemical) assay
T1 construct: purchased Jubilant Biosys
Summary of the method: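 Compounds were tested as half-log dilutions from 0.0005 to 10 uM in Tris pH 7.5/MgCl2 buffer, with a substrate mix of 1 uM biotin-MBP peptide and 24 uM ATP and an enzyme mix of 25 nM ERK2. Reaction ran 60 min at room temperature. Phospho-MBP was detected by HTRF (Eu-anti-phospho-MBP/SA-APC, 665/620 nm), and IC50 was fitted with a variable-slope sigmoidal curve.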

ERK1 = target: T2, ERK1 (Homo sapiens, UniProt P27361); experiment: ERK1 HTRF (biochemical) assay
T2 construct: purchased Jubilant Biosys
T2 sequence (P27361 whole entry): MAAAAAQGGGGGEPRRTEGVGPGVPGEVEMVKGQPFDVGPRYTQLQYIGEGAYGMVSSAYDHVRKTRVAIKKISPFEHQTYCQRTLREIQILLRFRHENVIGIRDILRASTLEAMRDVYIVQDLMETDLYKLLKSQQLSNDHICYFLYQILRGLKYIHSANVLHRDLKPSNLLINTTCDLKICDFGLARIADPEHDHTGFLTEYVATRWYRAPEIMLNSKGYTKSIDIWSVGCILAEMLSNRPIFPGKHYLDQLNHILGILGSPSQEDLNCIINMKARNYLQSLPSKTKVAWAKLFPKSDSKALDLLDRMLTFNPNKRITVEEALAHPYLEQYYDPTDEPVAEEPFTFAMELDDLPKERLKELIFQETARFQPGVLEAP
Method: ERK1 and ERK2 HTRF (Biochemical) Assays
These assays employed a homogeneous time resolved fluorescence (HTRF) technique. […] The plate was incubated at room temperature for 60 min with shaking. […] The IC50 values (half maximal inhibitory concentration values) were subsequently determined using a sigmoidal dose-response curve (variable slope) in GraphPad Prism® 5 software.

T1 sequence (P28482 whole entry): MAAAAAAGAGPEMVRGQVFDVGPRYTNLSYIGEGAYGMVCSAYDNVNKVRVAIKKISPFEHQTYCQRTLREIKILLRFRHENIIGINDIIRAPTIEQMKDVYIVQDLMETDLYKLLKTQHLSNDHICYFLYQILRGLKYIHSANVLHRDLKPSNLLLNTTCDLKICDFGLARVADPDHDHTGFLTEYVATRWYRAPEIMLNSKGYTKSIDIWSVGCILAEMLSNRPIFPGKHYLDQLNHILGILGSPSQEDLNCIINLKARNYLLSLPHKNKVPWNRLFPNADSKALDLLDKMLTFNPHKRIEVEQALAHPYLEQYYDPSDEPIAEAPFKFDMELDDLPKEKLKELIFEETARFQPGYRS

IC50 (ERK2; HTRF) [nM]	IC50 (ERK1; HTRF) [nM]	IC50 (ERK2; HTRF biochemical assay) [nM]	IC50 (ERK1; HTRF biochemical assay) [nM]	SMILES
≤ 50	< 50			O=C(NC(CO)c1cccc(Cl)c1)c1cn(-c2cc(Nc3ccccc3)ncc2Cl)cn1 (stereo not drawn) [Compound 106, 1-(5-Chloro-2-(phenylamino)pyridin-4-yl)-N-(1-(3-chlorophenyl)-2-hydroxyethyl)-1H-imidazole-4-carboxamide]
50 to 100	100 to 500			Cc1cnc(Nc2ccc(F)cc2)cc1-n1cnc(C(=O)NC(CO)c2ccccc2)c1 (stereo not drawn) [Compound 222, 1-(2-((4-fluorophenyl)amino)-5-methylpyridin-4-yl)-N-(2-hydroxy-1-phenylethyl)-1H-imidazole-4-carboxamide]
50 to 100	100 to 500			Cc1cnc(NC2CC(F)(F)C2)nc1-n1cnc(C(=O)N[C@@H](CN)c2cc(F)cc(Cl)c2)c1 [Example 289, (R)-N-(2-amino-1-(3-chloro-5-fluoro-phenyl)ethyl)-1-(2-((3,3-difluoro-cyclobutyl)amino)-5-methylpyrimidin-4-yl)-1H-imidazole-4-carboxamide]
≤ 50	< 50			Cc1cnc(NC2CCOCC2)nc1-n1cnc(C(=O)N[C@H](CNCc2ccc[nH]2)c2cccc(Cl)c2)c1 [Example 306, (S)-N-(2-(((1H-pyrrol-2-yl)-methyl)amino)-1-(3-chlorophenyl)-ethyl)-1-(5-methyl-2-((tetrahydro-2H-pyran-4-yl)amino)-pyrimidin-4-yl)-1H-imidazole-4-carboxamide]
≤ 50	< 50			O=C(N[C@H](CO)c1cccc(Cl)c1)c1cn(-c2ccnc(NC3CCOC3)c2)cn1 (stereo partly drawn) [Compound 170, N-((S)-1-(3-chlorophenyl)-2-hydroxyethyl)-1-(2-((tetrahydrofuran-3-yl)amino)pyridin-4-yl)-1H-imidazole-4-carboxamide]
≤ 50	< 50			Cc1cnc(N[C@@H]2CCOC2)nc1-n1cnc(C(=O)N[C@H](CO)c2cccc(Cl)c2)c1 [Example 265, N-((S)-1-(3-chlorophenyl)-2-hydroxyethyl)-1-(5-methyl-2-(((R)-tetrahydrofuran-3-yl)amino)pyrimidin-4-yl)-1H-imidazole-4-carboxamide]
≤ 50	< 50			Cc1cnc(NC2CCOCC2)nc1-n1cnc(C(=O)NC(c2cccc(Cl)c2)C(C)O)c1 (single isomer, unassigned) [Compound 252, N-(1-(3-chlorophenyl)-2-hydroxypropyl)-1-(5-methyl-2-((tetrahydro-2H-pyran-4-yl)amino)-pyrimidin-4-yl)-1H-imidazole-4-carboxamide]
≤ 50	< 50			COc1cc(Nc2ncc(C)c(-n3ccc(C(=O)NC(CO)c4ccccc4)c3)n2)ccc1F (stereo not drawn) [Compound 154, 1-(2-((4-fluoro-3-methoxyphenyl)amino)-5-methyl-pyrimidin-4-yl)-N-(2-hydroxy-1-phenylethyl)-1H-pyrrole-3-carboxamide]
≤ 50	< 50			Cc1cnc(Nc2cccnc2)cc1-n1ccc(C(=O)NC(CO)c2ccc(F)c(Cl)c2)c1 (stereo not drawn) [Compound 171, N-(1-(3-chloro-4-fluorophenyl)-2-hydroxyethyl)-1-(5-methyl-2-(pyridin-3-ylamino)pyridin-4-yl)-1H-pyrrole-3-carboxamide]
≤ 50	< 50			Cc1cnc(NC2CCOCC2)nc1-n1cnc(C(=O)NC(CO)c2cccc(C(F)(F)F)c2)c1 (stereo not drawn) [Compound 237, N-(2-hydroxy-1-(3-(trifluoromethyl)-phenyl)ethyl)-1-(5-methyl-2-((tetrahydro-2H-pyran-4-yl)amino)-pyrimidin-4-yl)-1H-imidazole-4-carboxamide]
≤ 50	< 50			Cc1cnc(N[C@H]2CCOC2)nc1-n1ccc(C(=O)N(C)C(CO)c2cccc(Cl)c2)c1 (stereo partly drawn) [Compound 212, N-(1-(3-chlorophenyl)-2-hydroxyethyl)-N-methyl-1-(5-methyl-2-(((S)-tetrahydrofuran-3-yl)amino)-pyrimidin-4-yl)-1H-pyrrole-3-carboxamide]

More lines, now with the values behind:

SMILES	IC50 (ERK2; HTRF) [nM]	IC50 (ERK1; HTRF) [nM]	IC50 (ERK2; HTRF biochemical assay) [nM]	IC50 (ERK1; HTRF biochemical assay) [nM]
Cc1cnc(Nc2ccc(F)cc2)cc1-n1ccc(C(=O)NC(CN)c2ccc(F)c(Cl)c2)c1 (stereo not drawn) [Compound 164, N-(2-amino-1-(3-chloro-4-fluoro-phenyl)ethyl)-1-(2-((4-fluorophenyl)-amino)-5-methyl-pyridin-4-yl)-1H-pyrrole-3-carboxamide]	≤ 50	< 50		
O=C(Nc1cnn(-c2ccnc(NC3CC3)n2)c1)N[C@H](CO)c1cccc(Cl)c1 [Compound 6, (S)-1-(1-(3-chlorophenyl)-2-hydroxyethyl)-3-(1-(2-(cyclopropyl-amino)pyrimidin-4-yl)-1H-pyrazol-4-yl)urea]	≤ 50	< 50		
Cc1cnc(NC2CCOC2)nc1-n1ccc(C(=O)N[C@H](CO)c2ccc(F)c(Cl)c2)c1 (stereo partly drawn) [Compound 157, N-((S)-1-(3-chloro-4-fluorophenyl)-2-hydroxyethyl)-1-(5-methyl-2-((tetrahydrofuran-3-yl)amino)pyrimidin-4-yl)-1H-pyrrole-3-carboxamide]	≤ 50	< 50		
Cc1cnc(NC2CC2)nc1-n1cc(C(=O)N[C@H](CO)c2cccc(Cl)c2)cn1 [Compound 39, (S)-N-(1-(3-chlorophenyl)-2-hydroxyethyl)-1-(2-(cyclopropylamino)-5-methylpyrimidin-4-yl)-1H-pyrazole-4-carboxamide]	≤ 50	50 to 100		
CC[C@@H](CO)Nc1cc(-n2ccc(C(=O)NC(CO)c3ccccc3)c2)c(C)cn1 (stereo partly drawn) [Compound 100, N-(2-hydroxy-1-phenylethyl)-1-(2-(((S)-1-hydroxy-butan-2-yl)amino)-5-methylpyridin-4-yl)-1H-pyrrole-3-carboxamide]	≤ 50	50 to 100		
Cc1cnc(N[C@H]2CCOC2)nc1-n1cnc(C(=O)NCc2cccc(CO)c2Cl)c1 [Example 338, (S)-N-(2-chloro-3-(hydroxymethyl)-benzyl)-1-(5-methyl-2-((tetrahydrofuran-3-yl)amino)-pyrimidin-4-yl)-1H-imidazole-4-carboxamide]			≤ 50	< 50
CC[C@@H](CO)Nc1ncc(C)c(-n2ccc(C(=O)N[C@H](CO)c3cccc(Cl)c3)c2)n1 [Compound 219, N-((S)-1-(3-chlorophenyl)-2-hydroxyethyl)-1-(2-(((S)-1-hydroxy-butan-2-yl)amino)-5-methylpyrimidin-4-yl)-1H-pyrrole-3-carboxamide]	≤ 50	< 50		
Cc1cnc(NC2CCOCC2)nc1-n1cnc(C(=O)NCc2ccccc2C(C)(C)O)c1 [Example 293, N-(2-(2-hydroxy-propan-2-yl)benzyl)-1-(5-methyl-2-((tetrahydro-2H-pyran-4-yl)amino)-pyrimidin-4-yl)-1H-imidazole-4-carboxamide]	≤ 50	< 50		
O=C(N[C@H](CO)c1cccc(Cl)c1)c1cn(-c2ccnc(Nc3ccccc3)c2)cn1 [Compound 72, (S)-N-(1-(3-chlorophenyl)-2-hydroxyethyl)-1-(2-(phenylamino)pyridin-4-yl)-1H-imidazole-4-carboxamide]	≤ 50	< 50		
Cc1cnc(Nc2ccc(F)cc2Cl)nc1-n1cc(C(=O)NC(CO)c2cccc(Cl)c2)cn1 (stereo not drawn) [Compound 45, 1-(2-((2-chloro-4-fluorophenyl)amino)-5-methyl-pyrimidin-4-yl)-N-(1-(3-chlorophenyl)-2-hydroxyethyl)-1H-pyrazole-4-carboxamide]	≤ 50	< 50		
